Measured values taken from US20200171132A1, “METHODS OF INHIBITING FUNGAL CERAMIDE SYNTHASE FOR TREATMENT OF CRYPTOCOCCUS NEOFORMANS INFECTION” (The Research Foundation for the State University of New York, priority 2017, published 2020).

System: fungal Cer1 (Cn Cer1)
Assay: High throughput ceramide synthase assay (96-well, NBD-sphingosine, SPE)
Type: biochemical, Cryptococcus neoformans
Conditions: 1 micromolar; wells contained 10 compounds each; 1 hour at 37° C.
Experimental: The compounds were first diluted to 1 mM each (1:10 dilution with 10% DMSO) with a physiological buffer (YNB medium buffered with HEPES at pH 7.4 containing 2% glucose) and subsequently diluted to 300 μM (1:3.3 dilution) with the same medium (3% DMSO). A 100-μl aliquot of this solution was placed into each well of a 96-well master plate and stored at −20° C. until use. Each well in the screening master plates contained 10 compounds at 1 μM each. The ceramide synthase reaction was performed in a 96-well plate format using fungal Cer1 (Cn Cer1) or human ceramide synthase (Hu-Cer1, -Cer2, -Cer3, -Cer4, -Cer5, or -Cer6) enzyme, containing NBD-Sphingosine (NBD-Sph) (Avanti Polar Lipids) and 18:0 Coenzyme A (Stearoyl Coenzyme A, Avanti Polar Lipids) as substrates using the following concentrations: 10 μM NBD-Sph and 50 μM fatty acid CoA. The reaction mixture was prepared in HEPES buffer (20 mM HEPES, pH 7.2, 25 mM KCl, 250 mM sucrose, and 2 mM MgCl2). Library compounds were added and plate incubated for 1 hour at 37 C. The lipid product (NBD-ceramide) was separated using solid phase extraction (SPE) column chromatography using Strata® C18-E, 96 well plates (Phenomenex). Reaction product was measured using a plate reader.
The Cn Cer1 enzyme is expressed using the pYES-GAL1 galactose inducible system in Saccharomyces cerevisiae whereas the mammalian ceramide synthases (Cer1-6) are induced with tetracycline using the Tet-On System in HCT-116 cells under the control of Geneticin and Blasticidin. Cn Cer1 or Hu Cer1-6 enzymes were extracted using the tag system and enriched in microsomal preparation. Before using the enzymes in the plate screening, each preparation was tested for ceramide activity using the TLC assay illustrated in FIG. 11, to make sure the ceramide synthase activity works as expected. Appropriate negative controls (e.g. Cn Cer1 on glucose or Hu Cer1 in absence of tetracycline) were included in each plate during the screening.
The ceramide synthase assay was performed using NBD-Sphingosine (NBD-Sph) (Avanti polar lipids) and 18:0 Coenzyme A (Stearoyl Coenzyme A, Avanti polar lipids) as substrates using the following concentrations: 10 μM NBD-Sph and 50 μM fatty acid CoA. Enzyme(s)—ceramide synthases—were prepared using microsome purification of the yeasts or mammalian expression system. For yeast, the S. cerevisiae strain BY4741 expressing C. neoformans ceramide synthase 1 using the pYES GAL1 expression system was grown in 200 ml of liquid YNB 2% galactose medium for 16 hours. The same strain grown in the same medium but containing 2% glucose was used as a negative control because the Cn Cer1 gene is under the control of the galactose promoter (GAL1). Cells were then harvested by centrifugation, resuspended in 2 ml of Lysis Buffer (20 mM HEPES/KOH, pH 7.4, 25 mM KCl, 2 mM MgCl2, 250 mM sorbitol) and 50 μl of proteinase inhibitor mixture (Sigma-Aldrich)/g of cells, and broken by bead-bashing at 4° C. for 1.5 h. Cell debris were removed by centrifuging at 1000 g at 4° C. for 10 min. The supernatant was loaded on a 60% (w/w) sucrose cushion and centrifuged at 100,000 g for 1 h. The microsomes were collected from the interphase, snap frozen in liquid nitrogen, and stored at −80° C. until use.
The high throughput assays were adapted from the Avanti Ceramide synthase assay kit (https://avantilipids.com/product/640011/). The reactions were first downsized to 20 μl in a 96-well plate format using human ceramide synthases (Cer1, […], Cer3, Cer4, Cer5, or Cer6) along with Cn Cer1. Lipid product (NBD-ceramide) was separated using solid phase extraction (SPE) column chromatography using Strata® C18-E, 96 well plates (Phenomenex). The reaction product was measured using a plate reader, as in FIG. 12. The Z′ score of the assay is 0.80194, which is considered excellent (FIG. 12).
An initial screening yielded compounds 1-10 (Table 3). […]

`CC(C)Nc1cc(-c2ccc3c(c2)OCO3)nc(N)n1` [Compound 1] and `OCc1cc(-c2ccc3ccccc3n2)ccc1F` [Compound 2] are the same in “% reduction in activity (inhibition of Cn Cer1 synthse activity)” value: 94.43% for the first, 94.43% for the second.

Compared with `C=CCc1cc(-c2[nH]cnc2-c2ccccc2)cc(OC)c1O` [Compound 3], `Cc1cc2c(cc1O)NC(=O)CC2c1c[nH]nc1-c1ccc(F)cc1` (stereo not drawn) [Compound 29] is lower in “% reduction in activity (inhibition of Cn Cer1 synthse activity)” value: 94.43% for the first, 86.1% for the second.

First: Cc1ccsc1C(=O)N1CCN2C(=O)CNC(=O)C2C1 (stereo not drawn) [Compound 4]
Second: O=C1NCC(=O)N2CCN(C(=O)c3cccc4c3NCCC4)CC12 (stereo not drawn) [Compound 44]
The “% reduction in activity (inhibition of Cn Cer1 synthse activity)” value of the first is higher: 94.43% for the first, 84.91% for the second.

Going from `Cn1ccnc1CN(Cc1cc2ccccc2o1)C1CC1` [Compound 5] to `CCN(Cc1ccc(-n2cccn2)cc1)CC1CCOCC1` [Compound 23], the “% reduction in activity (inhibition of Cn Cer1 synthse activity)” value falls from 94.43% to 86.1%.

`CCN(C/C=C/c1ccccc1)C(=O)c1cc2cccnc2nc1C` [Compound 6] and `CCN(C/C=C/c1ccccc1)C(=O)c1ccc(-n2cnnc2)cc1` [Compound 10] are the same in “% reduction in activity (inhibition of Cn Cer1 synthse activity)” value: 94.43% for the first, 94.43% for the second.

`CCN(CC1CCCCO1)C(=O)c1cccc(-n2cnnc2)c1` (stereo not drawn) [Compound 7] and `CC(Cn1ccc2ccccc21)NC(=O)c1ccc(-n2cnnc2)cc1` (stereo not drawn) [Compound 9] are the same in “% reduction in activity (inhibition of Cn Cer1 synthse activity)” value: 94.43% for the first, 94.43% for the second.

Going from `CC(C)CN1CC(C(=O)NCc2nncn2C2CCCCC2)CC1=O` (stereo not drawn) [Compound 8] to `CCn1c(C2CCN(C(=O)C(N)CC3CCCC3)CC2)nn(C)c1=O` (stereo not drawn) [Compound 15], the “% reduction in activity (inhibition of Cn Cer1 synthse activity)” value falls from 94.43% to 87.67%.

`Cc1ccc(F)cc1NC(=O)N1CCOC2(CNCCOC2)C1` (stereo not drawn) [Compound 11] and `COc1cccc2c1OCCCN(C(=O)c1cn3c(n1)CNCC3)C2` [Compound 18] are the same in “% reduction in activity (inhibition of Cn Cer1 synthse activity)” value: 87.67% for the first, 87.67% for the second.

`c1cncc(COC2CCN(Cc3ccc(-c4cc[nH]n4)s3)CC2)c1` [Compound 12] and `Clc1cccc2ccc(CN3CCn4cncc4C3)nc12` [Compound 17] are the same in “% reduction in activity (inhibition of Cn Cer1 synthse activity)” value: 87.67% for the first, 87.67% for the second.

Going from `CN1CC2(CCCN(C(=O)c3ccc4c(c3)OCCN4C)CC2)OC1=O` (stereo not drawn) [Compound 13] to `Cc1cc(C)n2nc(C(=O)N3CCC4(CN(C)C(=O)O4)C3)cc2n1` (stereo not drawn) [Compound 38], the “% reduction in activity (inhibition of Cn Cer1 synthse activity)” value falls from 87.67% to 85.73%.

Going from `CN(Cc1cc2cc(F)ccc2[nH]1)C(=O)c1ccccc1C1CCNC1` (stereo not drawn) [Compound 14] to `Cc1ccccc1-n1cc(CN(C)C(=O)c2ccccc2C2CCNC2)cn1` (stereo not drawn) [Compound 49], the “% reduction in activity (inhibition of Cn Cer1 synthse activity)” value falls from 87.67% to 84.91%.

Going from `Cc1nc[nH]c1-c1nccn1C(C)c1cccs1` (stereo not drawn) [Compound 16] to `CN(C)CC1COCCN(Cc2c(-c3ccccc3)nc3ncccn23)C1` (stereo not drawn) [Compound 39], the “% reduction in activity (inhibition of Cn Cer1 synthse activity)” value falls from 87.67% to 85.73%.

`FC(F)(F)C1CCN(Cc2cc3n(n2)CCNC3)CC1` [Compound 19] and `Fc1cccc(CN2CCN(Cc3cnc(NCC4CCCO4)nc3)CC2)c1` (stereo not drawn) [Compound 20] are the same in “% reduction in activity (inhibition of Cn Cer1 synthse activity)” value: 87.67% for the first, 87.67% for the second.

First: CCCCN(Cc1ccco1)C(=O)c1cc(C)[nH]c(=O)c1 [Compound 21]
Second: CC(=O)N(CCc1ccc(F)cc1)CC1=CCCN(CCO)C1 [Compound 45]
The “% reduction in activity (inhibition of Cn Cer1 synthse activity)” value of the first is higher: 86.1% for the first, 84.91% for the second.

First: O=C(NCCC1=CCCN(CCCF)C1)c1cccs1 [Compound 22]
Second: CC(=O)N(C)CC1=CCCN(Cc2cc(F)c(F)cc2F)C1 [Compound 43]
The “% reduction in activity (inhibition of Cn Cer1 synthse activity)” value of the first is higher: 86.1% for the first, 84.91% for the second.

Going from `O=C(NCC1(Cn2cccn2)CC1)c1ccccc1N1CCOCC1` [Compound 24] to `O=C1NCC2(CCCN(c3nnnn3-c3ccccc3)CC2)O1` (stereo not drawn) [Compound 32], the “% reduction in activity (inhibition of Cn Cer1 synthse activity)” value falls from 86.1% to 85.73%.

First: C/C(=C\c1ccccc1)CN1CCC(CN)C1 (stereo not drawn) [Compound 25]
Second: NC(=O)c1cccc(CC2CCN(C(=O)CCn3ccccc3=O)C2)c1 (stereo not drawn) [Compound 40]
The “% reduction in activity (inhibition of Cn Cer1 synthse activity)” value of the first is higher: 86.1% for the first, 85.73% for the second.

First: CCC[C@@H]1C[C@H](NC(C)=O)C[C@H](C2CCCCC2)O1 [Compound 26]
Second: CCSc1nc(CC(=O)N2[C@@H]3CC[C@H]2C[C@@H](O)C3)cs1 [Compound 35]
The “% reduction in activity (inhibition of Cn Cer1 synthse activity)” value of the first is higher: 86.1% for the first, 85.73% for the second.

Going from `CCc1ncc(C(=O)N2CCN(CC(C)C)C(=O)C2C)cn1` (stereo not drawn) [Compound 27] to `CCn1c(C2CCN(C(=O)C(C)n3cncn3)CC2)nn(C)c1=O` (stereo not drawn) [Compound 34], the “% reduction in activity (inhibition of Cn Cer1 synthse activity)” value falls from 86.1% to 85.73%.

Compared with `COc1cc(F)c(C2CC(=O)Nc3cc(N4CCNC4=O)ccc32)cc1OC` (stereo not drawn) [Compound 28], `Cc1cc2[nH]c(CN3CCCC3c3nc4cc(F)ccc4[nH]3)cc(=O)n2n1` (stereo not drawn) [Compound 47] is lower in “% reduction in activity (inhibition of Cn Cer1 synthse activity)” value: 86.1% for the first, 84.91% for the second.

Compared with `Cc1nc(CC(=O)NCCSc2nnc(C)s2)cs1` [Compound 30], `Cc1nc(C(C)C)ncc1C(=O)N(C)Cc1snnc1C` [Compound 33] is lower in “% reduction in activity (inhibition of Cn Cer1 synthse activity)” value: 86.1% for the first, 85.73% for the second.

Compared with `O=C1NCC2(CCCN(c3ncnc4[nH]ccc34)CC2)O1` (stereo not drawn) [Compound 31], `CN1CCC2(CC1)CCN(C(=O)c1cccc(Oc3ncccn3)c1)C2` [Compound 42] is lower in “% reduction in activity (inhibition of Cn Cer1 synthse activity)” value: 85.73% for the first, 84.91% for the second.

`Cc1noc(C)c1-n1c(CCCN2CCOCC2)n[nH]c1=O` [Compound 36] and `CC(C)Cc1n[nH]c(Cn2nc(Cc3ccccc3)c3ccccc3c2=O)n1` [Compound 37] are the same in “% reduction in activity (inhibition of Cn Cer1 synthse activity)” value: 85.73% for the first, 85.73% for the second.

`O=C(Nc1cccnc1)c1ccc(-c2cccc3cccnc23)o1` [Compound 41] and `CCc1nc(C)sc1CNc1nc(-c2cccnc2)nc2c1cnn2C` [Compound 50] are the same in “% reduction in activity (inhibition of Cn Cer1 synthse activity)” value: 84.91% for the first, 84.91% for the second.

`CNc1ncc(CN(C)C(=O)c2cnn[nH]2)cn1` [Compound 46] and `O=C(c1cnn[nH]1)N1CCC(Oc2ncccn2)CC1` [Compound 48] are the same in “% reduction in activity (inhibition of Cn Cer1 synthse activity)” value: 84.91% for the first, 84.91% for the second.

System: Pma1
Assay: Glucose dependent medium acidification (plasma membrane H+-ATPase activity)
Type: cell-based, Cryptococcus neoformans
Conditions: Δgcs1 strain upon treatment
Experimental: Glucose-dependent medium acidification was monitored by a modification of a procedure described previously (Perlin, Brown et al. 1988, Soteropoulos, Vaz et al. 2000). Cultures of Cn strain WT, Δcer1, Δcer1+CER1, Δgcs1 were grown to mid-log Phase in YPD. The next day, these cells were transferred to DMEM at pH 4.0 and allowed to grow under shaking conditions for 24 hours. These cells were then harvested and washed using 100 mM KCl, pH 5.0. These pellets were then resuspended in 10 ml KCl, pH 5.0 and incubated under shaking condition at 30° C. These samples were then stored at 4° C. overnight prior to use. For the assay, cells were concentrated to a final A590 of approximately 2.0. 20 μl cells along with 155 μl of bromophenolblue (50 μg/ml) in 100 mM KCl, pH 5.0. 20 μl 20% (w/v) glucose was added to initiate the reaction. Medium acidification was monitored at 590 nm over a period of 5 hours (data point every 3 mins) in a microplate reader (SpectraMax M5).

Aureobaisdin A [AbA] was tested, and the Pma1 activity was “reduced”.
